From patent publication US11260115B1, “Peptides and combination of peptides for use in immunotherapy against CLL and other cancers” (immatics biotechnologies GmbH, priority 2015, dated 2022)

Key:
CD8+ T cells = experiment: In vitro immunogenicity: T-cell priming with aAPCs loaded with peptide/MHC and anti-CD28, pMHC multimer readout; assay type: cell-based, human; conditions: HLA-A*02 restricted peptides, percentage of positive wells among evaluable
Experimental: FIGS. 3A-3F describe simulation graphs of various peptides of the present disclosure. […] CD8+ T cells were primed using artificial APCs coated with anti-CD28 mAb and HLA-A*02 in complex with SeqID No 1 peptide (FIG. 3C, left panel), SeqID No 5 peptide (FIG. 3D left panel), SeqID No 32 peptide (FIG. 3E, left panel) and SeqID No 220 peptide (FIG. 3F, left panel), respectively. After three cycles of stimulation, the detection of peptide-reactive cells was performed by 2D multimer staining with A*02/SeqID No 1 (FIG. 3C), A*02/SeqID No 5 (D), A*02/SeqID No 32 (FIG. 3E) or A*02/SeqID No 220 (FIG. 3F). Right panels (FIGS. 3C, 3D, 3E and 3F) show control staining of cells stimulated with irrelevant A*02/peptide complexes. Viable singlet cells were gated for CD8+ lymphocytes. Boolean gates helped excluding false-positive events detected with multimers specific for different peptides.
In order to obtain information regarding the immunogenicity of the TUMAPs of the present invention, the inventors performed investigations using an in vitro T-cell priming assay based on repeated stimulations of CD8+ T cells with artificial antigen presenting cells (aAPCs) loaded with peptide/MHC complexes and anti-CD28 antibody.
In order to perform in vitro stimulations by artificial antigen presenting cells loaded with peptide-MHC complex (pMHC) and anti-CD28 antibody, the inventors first isolated CD8+ T cells from fresh HLA-A*02 leukapheresis products via positive selection using CD8 microbeads (Miltenyi Biotec, Bergisch-Gladbach, Germany) of healthy donors obtained from the University clinics Mannheim, Germany, after informed consent.
PBMCs and isolated CD8+ lymphocytes were incubated in T-cell medium (TCM) until use consisting of RPMI-Glutamax (Invitrogen, Karlsruhe, Germany) supplemented with 10% heat inactivated human AB serum (PAN-Biotech, Aidenbach, Germany), 100 U/ml Penicillin/100 μg/ml Streptomycin (Cambrex, Cologne, Germany), 1 mM sodium pyruvate (CC Pro, Oberdorla, Germany), 20 μg/ml Gentamycin (Cambrex). 2.5 ng/ml IL-7 (PromoCell, Heidelberg, Germany) and 10 U/ml IL-2 (Novartis Pharma, Nümberg, Germany) were also added to the TCM at this step.
Generation of pMHC/anti-CD28 coated beads, T-cell stimulations and readout was performed in a highly defined in vitro system using four different pMHC molecules per stimulation condition and 8 different pMHC molecules per readout condition.
The purified co-stimulatory mouse IgG2a anti human CD28 Ab 9.3 (Jung et al., 1987) was chemically biotinylated using Sulfo-N-hydroxysuccinimidobiotin as recommended by the manufacturer (Perbio, Bonn, Germany). Beads used were 5.6 μm diameter streptavidin coated polystyrene particles (Bangs Laboratories, Illinois, USA).
800.000 beads/200 μl were coated in 96-well plates in the presence of 4×12.5 ng different biotin-pMHC, washed and 600 ng biotin anti-CD28 were added subsequently in a volume of 200 μl. Stimulations were initiated in 96-well plates by co-incubating 1×10^6 CD8+ T cells with 2×10^6 washed coated beads in 200 μl TCM supplemented with 5 ng/ml IL-12 (PromoCell) for 3 days at 37° C. Half of the medium was then exchanged by fresh TCM supplemented with 80 U/ml IL-2 and incubating was continued for 4 days at 37° C. This stimulation cycle was performed for a total of three times. For the pMHC multimer readout using 8 different pMHC molecules per condition, a two-dimensional combinatorial coding approach was used as previously described (Andersen et al., 2012) with minor modifications encompassing coupling to 5 different fluorochromes. Finally, multimeric analyses were performed by staining the cells with Live/dead near IR dye (Invitrogen, Karlsruhe, Germany), CD8-FITC antibody clone SK1 (BD, Heidelberg, Germany) and fluorescent pMHC multimers. For analysis, a BD LSRII SORP cytometer equipped with appropriate lasers and filters was used.

HLA-A*02:01 = HLA-A*02:01 (Homo sapiens, UniProt P04439, D140Y/D185E/D98H/E176V/E277Q/G131W/G231S/I119V/I121R/I166T/I218V/L300P/L318F/N151K/N90K/P208A/P217A/Q86G/Q94H/R138H/R169H/T345S); experiment: MHC binding assay (UV-ligand exchange, β2m ELISA, peptide exchange yield); conditions: binding to HLA-A*02:01
Summary of the method: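 Peptide-HLA-A*02:01 complexes formed by UV-mediated exchange of a photocleavable ligand; exchange yield measured by streptavidin-capture ELISA detecting β2m with HRP anti-β2m, TMB read at 450 nm. Refolded monomer standards 15-500 ng/ml; samples diluted 100-fold.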

Substance	Peptide Exchange (MHC class I binding score, peptide exchange yield) (HLA-A*02:01)	Wells positive [%] (CD8+ T cells)
114 (LIPEGPPQV; listed as Homo sapiens) [compound 114]	“+++” (>50 = +++)	“+” (<20% = +)
102 (IQDRAVPSL; listed as Homo sapiens) [compound 102]	“++” (>20% = ++)	“+” (<20% = +)
112 (KTLDVDATYEI; listed as Homo sapiens) [compound 112]	“+++” (>50 = +++)	“+” (<20% = +)
81 (WLVGQEFEL; listed as Homo sapiens) [compound 81]	“+++” (>50 = +++)	“+” (<20% = +)
154 (SLLAELHVLTV; listed as Homo sapiens) [compound 154]	“++++” (>75% = ++++)	“+” (<20% = +)
57 (GLSEISLRL; listed as Homo sapiens) [compound 57]	“++++” (>75% = ++++)	“+” (<20% = +)
86 (HLYPGAVTI; listed as Homo sapiens) [compound 86]	“+++” (>50 = +++)	“+” (<20% = +)
17 (ALTKTNLQL; listed as Homo sapiens) [compound 17]	“+++” (>50 = +++)	“+” (<20% = +)
101 (ILVVIEPLL; listed as Homo sapiens) [compound 101]	“++++” (>75% = ++++)	“+” (<20% = +)
197 (YLQEVPILTL; listed as Homo sapiens) [compound 197]	“++++” (>75% = ++++)	“+” (<20% = +)
54 (FLYPFPLALF; listed as Homo sapiens) [compound 54]	“+++” (>50 = +++)	“+” (<20% = +)
192 (YIQEYLTLL; listed as Homo sapiens) [compound 192]	“+++” (>50 = +++)	“+” (<20% = +)
200 (YMFEEVPIVI; listed as Homo sapiens) [compound 200]	“++++” (>75% = ++++)	“+” (<20% = +)
69 (GLHQREIFL; listed as Homo sapiens) [compound 69]	“+++” (>50 = +++)	“+” (<20% = +)
2 (ALHRPDVYL; listed as Homo sapiens) [compound 2]	“+++” (>50 = +++)	“+” (<20% = +)
201 (YQLELHGIEL; listed as Homo sapiens) [compound 201]	“++++” (>75% = ++++)	“+” (<20% = +)
32 (FIDKFTPPV; listed as Homo sapiens) [compound 32]	“++++” (>75% = ++++)	“++++” (>=70% = ++++)
26 (AVLLVLPLV; listed as Homo sapiens) [compound 26]	“+++” (>50 = +++)	“+” (<20% = +)
96 (ILIDKTSFV; listed as Homo sapiens) [compound 96]	“+++” (>50 = +++)	“+” (<20% = +)

Now from value to substance, other results behind:

Peptide Exchange (MHC class I binding score, peptide exchange yield) (HLA-A*02:01)	Substance	Wells positive [%] (CD8+ T cells)
“++++” (>75% = ++++)	323 (SLDLFNCEV; listed as Homo sapiens) [compound 323]	“+” (<20% = +)
“+++” (>50 = +++)	281 (NLLDDRGMTAL; listed as Homo sapiens) [compound 281]	“+” (<20% = +)
“+++” (>50 = +++)	380 (YLDRKLLTL; listed as Homo sapiens) [compound 380]	“++++” (>=70% = ++++)
“++++” (>75% = ++++)	320 (TIAPVTVAV; listed as Homo sapiens) [compound 320]	“+” (<20% = +)
“+++” (>50 = +++)	332 (VMIQHVENL; listed as Homo sapiens) [compound 332]	“+” (<20% = +)
“+++” (>50 = +++)	307 (LLLTKPTEA; listed as Homo sapiens) [compound 307]	“+” (<20% = +)
“+++” (>50 = +++)	240 (ILARDILEI; listed as Homo sapiens) [compound 240]	“+” (<20% = +)
“+++” (>50 = +++)	322 (SLASIHVPL; listed as Homo sapiens) [compound 322]	“+” (<20% = +)
